Data on 21 compounds can be found in PubChem BioAssay AID192 (DTP/NCI, 2004).

Several values for one entry are separate records, joined by “and”; a condition that tells them apart may be missing. Equal values may be shown once. Toxic doses and inconclusive results are not listed.

This experiment relates to BDF1 mice, B16 melanoma ip, median survival T/C. The experiment is described as follows: NCI In Vivo Anticancer Drug Screen. Data for tumor model B16 Melanoma (intraperitoneal) in B6D2F1 (BDF1) mice. The following applies: endpoint: median survival time, higher = longer survival. The essentials:
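Each result divides a survival or tumor-size measurement in the compound-treated group by the same measurement in the vehicle group.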

Setting [1] is: dose: 100.0 mg/kg/injection, schedule: Q04DX003 (ip), vehicle: saline with Tween-80.
Setting [2] is: dose: 200.0 mg/kg/injection, schedule: Q04DX003 (ip), vehicle: saline with Tween-80.
[3] abbreviates: dose: 400.0 mg/kg/injection, schedule: Q04DX003 (ip), vehicle: saline with Tween-80.
Setting [4] is: dose: 6.25 mg/kg/injection, schedule: Q01DX009 (ip), vehicle: saline with Tween-80.
[5] abbreviates: dose: 12.5 mg/kg/injection, schedule: Q01DX009 (ip), vehicle: saline with Tween-80.
Where [6] appears, read: dose: 25.0 mg/kg/injection, schedule: Q01DX009 (ip), vehicle: saline with Tween-80.
Where [7] appears, read: dose: 25.0 mg/kg/injection, schedule: Q01DX009 (ip), vehicle: saline.
Where [8] appears, read: dose: 50.0 mg/kg/injection, schedule: Q01DX009 (ip), vehicle: saline.
Where [9] appears, read: dose: 100.0 mg/kg/injection, schedule: Q01DX009 (ip), vehicle: saline.
Where [10] appears, read: dose: 100.0 mg/kg/injection, schedule: Q01DX009 (ip), vehicle: Klucel (hydroxypropylcellulose) (HPC).
Where [11] appears, read: dose: 200.0 mg/kg/injection, schedule: Q01DX009 (ip), vehicle: Klucel (hydroxypropylcellulose) (HPC).
Setting [12] is: dose: 6.25 mg/kg/injection, schedule: Q01DX009 (ip), vehicle: saline.
The mark [13] stands for this setting: dose: 12.5 mg/kg/injection, schedule: Q01DX009 (ip), vehicle: saline.
Setting [14] is: dose: 50.0 mg/kg/injection, schedule: Q01DX009 (ip), vehicle: saline with Tween-80.

Consider `NC(=O)CC(NC(=O)OCc1ccccc1)C(N)=O` (centres undefined), for which the T/C is, setting by setting: (dose: 100.0 mg/kg/injection, schedule: Q04DX003 (ip), vehicle: Klucel (hydroxypropylcellulose) (HPC)) 100 % of control; (dose: 200.0 mg/kg/injection, schedule: Q04DX003 (ip), vehicle: Klucel (hydroxypropylcellulose) (HPC)) 87 % of control; (dose: 400.0 mg/kg/injection, schedule: Q04DX003 (ip), vehicle: Klucel (hydroxypropylcellulose) (HPC)) 87 % of control.

Consider `CC(Br)C(=O)NC(CO)C(=O)O` (centres undefined), for which the T/C (dose: 100.0 mg/kg/injection, schedule: Q01DX009 (ip), vehicle: saline with Tween-80) is 94 % of control; the T/C under setting [1] was 108 % of control; the T/C (dose: 200.0 mg/kg/injection, schedule: Q01DX009 (ip), vehicle: saline with Tween-80) is 99 % of control; the T/C under setting [2] is 113 % of control; the T/C (dose: 400.0 mg/kg/injection, schedule: Q01DX009 (ip), vehicle: saline with Tween-80) was 86 % of control; the T/C under setting [3] is 108 % of control.

Turning to `O=[N+]([O-])/C(=C/c1ccccc1)c1ccccc1`, the T/C by setting is: under setting [4], 104 % of control; under setting [5], 95 % of control; under setting [6], 112 % of control.

`CCCCNCCN(CC)CC`: the T/C was 100 % of control under setting [7], 100 % of control under setting [8] and 98 % of control under setting [9].

Take `COc1ccccc1NC(=O)c1cc2ccccc2cc1O`: the T/C is 121 % of control under setting [9] and 118 % of control (dose: 400.0 mg/kg/injection, schedule: Q01DX009 (ip), vehicle: saline).

Take `[N-]=[N+]=CC(=O)CCC(N)C(=O)O` (centres undefined): the T/C runs as follows: (dose: 0.03 mg/kg/injection, schedule: Q01DX009 (ip), vehicle: saline with Tween-80) 95 % of control; (dose: 0.05 mg/kg/injection, schedule: Q01DX009 (ip), vehicle: saline) 115 % of control; (dose: 0.06 mg/kg/injection, schedule: Q01DX009 (ip), vehicle: saline with Tween-80) 91 % of control; (dose: 0.1 mg/kg/injection, schedule: Q01DX009 (ip), vehicle: saline) 104 % of control; (dose: 0.12 mg/kg/injection, schedule: Q01DX009 (ip), vehicle: saline with Tween-80) 95 % of control; (dose: 0.13 mg/kg/injection, schedule: Q01DX009 (ip), vehicle: saline) 102 % of control. Besides, the T/C was 91 % of control (dose: 6.2 micrograms/kg/injection, schedule: Q01DX009 (ip), vehicle: saline); 92 % of control (dose: 12.5 micrograms/kg/injection, schedule: Q01DX009 (ip), vehicle: saline); 109 % of control (dose: 25.0 micrograms/kg/injection, schedule: Q01DX009 (ip), vehicle: saline).

With `CC(C)CCC(C)C1CCC2C3CC([N+](=O)[O-])=C4CC(OC(=O)c5ccccc5)CCC4(C)C3CCC12C` (centres undefined), the T/C by setting is: under setting [10], 105 % of control; under setting [11], 110 % of control; (dose: 400.0 mg/kg/injection, schedule: Q01DX009 (ip), vehicle: Klucel (hydroxypropylcellulose) (HPC)) 105 % of control.

With `NC(=O)c1ncn2c(=O)n(CCCl)nnc12`, the T/C reads like this: under setting [12], 158 % of control; under setting [13], 216 % of control; under setting [7], 207 % of control; under setting [8], 96 % of control.

Consider `O=c1[nH]c2ccccc2c2cc3ccccc3cc12`, for which the T/C by setting is: under setting [12], 94 % of control; under setting [13], 86 % of control.

Take `Cc1cc(C)nc(NC(N)=NCCc2ccccc2)n1`: the T/C runs as follows: under setting [5], 104 % of control; under setting [6], 88 % of control; under setting [14], 97 % of control.

In the case of `O=[N+]([O-])O.O=[N+]([O-])O.[NH-]C1CCCCC1[NH-].[Pt+2]` (centres undefined), the T/C by setting is: (dose: 0.25 mg/kg/injection, schedule: Q01DX009 (ip), vehicle: dextrose) 110 % of control; (dose: 0.5 mg/kg/injection, schedule: Q01DX009 (ip), vehicle: dextrose) 120 % of control; (dose: 1.0 mg/kg/injection, schedule: Q01DX009 (ip), vehicle: dextrose) 160 % of control; (dose: 2.0 mg/kg/injection, schedule: Q01DX009 (ip), vehicle: dextrose) 183 % of control.

Regarding `CNc1ccc(C(=O)O)cc1OC`, the T/C by setting is: under setting [1], 95 % of control; under setting [2], 91 % of control; under setting [3], 90 % of control.

As to `CCN(CC)Cc1cc2[nH]c3c4ccc(Cl)cc4ncc3c2cc1OC`, the T/C is, setting by setting: under setting [4], 95 % of control; under setting [5], 98 % of control; under setting [6], 98 % of control.

With `C=CCC(OC(=O)c1ccc(Br)cc1)C1(C)OC1C(C)C1CC(O)(C(OC)OC)NC(=O)O1` (centres undefined), the T/C is, setting by setting: (dose: 0.25 mg/kg/injection, schedule: Q01DX009 (ip), vehicle: saline + alcohol) 100 % of control; (dose: 0.5 mg/kg/injection, schedule: Q01DX009 (ip), vehicle: saline + alcohol) 103 % of control; (dose: 1.0 mg/kg/injection, schedule: Q01DX009 (ip), vehicle: saline + alcohol) 93 % of control; (dose: 2.0 mg/kg/injection, schedule: Q01DX009 (ip), vehicle: saline + alcohol) 98 % of control; (dose: 4.0 mg/kg/injection, schedule: Q01DX009 (ip), vehicle: saline + alcohol) 90 % of control.

With `Cc1ccn(C(N)=O)n1`, the T/C is, setting by setting: under setting [10], 93 % of control; under setting [11], 109 % of control.

For the compound `COC1=NCN=C2SC=C(N)N=C12`, the T/C reads like this: (dose: 3.13 mg/kg/injection, schedule: Q01DX009 (ip), vehicle: saline) 105 % of control; under setting [12], 100 % of control and 109 % of control; under setting [13], 96 % of control and 98 % of control; under setting [8], 98 % of control and 100 % of control.

In the case of `CCN1CC(CCN2CCOCC2)C(c2ccccc2)(c2ccccc2)C1=O` (centres undefined), the T/C runs as follows: under setting [12], 91 % of control; under setting [13], 104 % of control; under setting [7], 100 % of control; under setting [8], 102 % of control; under setting [9], 100 % of control.

Regarding `Nc1n[n+](-c2ccc(Cl)cc2)no1`, the T/C is, setting by setting: (dose: 3.12 mg/kg/injection, schedule: Q01DX009 (ip), vehicle: water) 102 % of control; (dose: 6.25 mg/kg/injection, schedule: Q01DX009 (ip), vehicle: water) 107 % of control; (dose: 12.5 mg/kg/injection, schedule: Q01DX009 (ip), vehicle: water) 109 % of control; (dose: 50.0 mg/kg/injection, schedule: Q01DX009 (ip), vehicle: water) 117 % of control.

Turning to `O=C(O)C(O)C(O)C(O)C(O)C(=O)O` (centres undefined), the T/C (dose: 300.0 mg/kg/injection, schedule: Q01DX009 (ip), vehicle: Klucel (hydroxypropylcellulose) (HPC)) is 100 % of control; the T/C (dose: 600.0 mg/kg/injection, schedule: Q01DX009 (ip), vehicle: Klucel (hydroxypropylcellulose) (HPC)) is 93 % of control; the T/C (dose: 900.0 mg/kg/injection, schedule: Q01DX009 (ip), vehicle: Klucel (hydroxypropylcellulose) (HPC)) is 91 % of control.

Take `O=S(=O)(O)c1ccc2cccc(N=Nc3c(O)ccc4ccccc34)c2c1`: the T/C was 105 % of control under setting [5], 102 % of control under setting [6] and 91 % of control under setting [14].

Take `COc1cc2c[n+](C)c3c4cc5c(cc4ccc3c2cc1OC)OCO5` (tested in a mixture with another compound): the T/C by setting is: (dose: 0.78 mg/kg/injection, schedule: Q01DX009 (ip), vehicle: distilled water + Tween-80) 105 % of control; (dose: 1.56 mg/kg/injection, schedule: Q01DX009 (ip), vehicle: distilled water + Tween-80) 97 % of control; (dose: 3.13 mg/kg/injection, schedule: Q01DX009 (ip), vehicle: distilled water + Tween-80) 118 % of control; (dose: 5.0 mg/kg/injection, schedule: Q01DX009 (ip), vehicle: saline) 116 % of control; (dose: 6.25 mg/kg/injection, schedule: Q01DX009 (ip), vehicle: Klucel (hydroxypropylcellulose) (HPC)) 110 % of control; (dose: 12.5 mg/kg/injection, schedule: Q01DX009 (ip), vehicle: Klucel (hydroxypropylcellulose) (HPC)) 124 % of control. Besides, the T/C is 114 % of control (dose: 25.0 mg/kg/injection, schedule: Q01DX009 (ip), vehicle: Klucel (hydroxypropylcellulose) (HPC)); 159 % of control (dose: 40.0 mg/kg/injection, schedule: Q01DX009 (ip), vehicle: saline); 92 % of control (dose: 50.0 mg/kg/injection, schedule: Q01DX009 (ip), vehicle: Klucel (hydroxypropylcellulose) (HPC)); 98 % of control (dose: 80.0 mg/kg/injection, schedule: Q01DX009 (ip), vehicle: saline).
